The test system of data set [1] is Hedgehog signaling pathway. The data set is described as follows: Gli luciferase reporter assay in Gli Reporter-NIH3T3 cells (mShh stimulated). Format: cell-based. To be noted: mShh 1 μg/ml, 27 hours, read-out: IC50 for inhibition of the Hedgehog signaling pathway. On the procedure: Hedgehog signaling pathway Gli Reporter-NIH3T3 cells were cultured in DMEM medium with 10% Calf serum, 1% Penn-strep, 500 μg/ml of Geneticin.
To perform the Gli luciferase reporter assay, Gli Reporter—NIH3T3 cells were seeded at 25,000 cells per well into white clear-bottom 96-well microplate in 100 μl of growth medium. Cells were incubated at 37° C. and 5% CO2 for overnight. Next day remove the medium from wells and add 45 μl of diluted inhibitor in assay medium (Opti-MEM Reduced Serum Medium+0.5% calf serum+1% non-essential amino acids+1 mM Na-pyruvate+10 mM HEPES+1% Pen/Strep) per well. Incubate cells at 37° C. in a CO2 incubator for 2 hours. Then add 5 μl of diluted mShh in assay medium to wells (final [mShh]=1 μg/ml). Add […] of assay medium to cell-free control wells. Cells were treated for 27 hours. […] Luminescence was measured using a luminometer (BioTek Synergy™ 2 microplate reader)
Reporter assays in triplicate were performed at each concentration. The luminescence intensity data were analyzed using the computer software, Graphpad Prism. In the absence of the compound, the luminescence intensity (Lt) in each data set was defined as 100%. In the absence of cells, the luminescence intensity (Lb) in each data set was defined as 0%. […]
(In general: A reporter such as luciferase makes a cellular process visible.)

A further data set in a line: MTD study of jervine. Format: in vivo, BALB/c nude mice. To be noted: 14 days. On the procedure: 9 BALB/c nude mice were divided equally into 3 groups. The mice were orally dosed at 50 mg/kg, 80 mg/kg and 150 mg/kg by groups. […] It was initially determined that the MTD is higher than 80 mg/kg for BALB/c nude mice.
The test system of data set [2] is BXPC-3 human pancreatic carcinoma xenograft. Put plainly: BXPC-3 xenograft tumor model, subcutaneous. The format is in vivo, BALB/c nude mice. The procedure:
(§1) • 8.1 Tumor size was measured twice weekly in two dimensions using a caliper, and the volume was expressed in mm^3 using the formula: V=0.5 a×b^2 where a and b are the long and short diameters of the tumor, respectively. • 8.2 T/C, percent value, T and C were the mean volume of the treated and control groups, respectively, on a given day. • 8.3 T−C, calculated with T as the time (in days) required for the mean tumor size of the treatment group to reach a predetermined size, and C was the time (in days) for the mean tumor size of the control group to reach the same size. • 8.4 (1−((Td−T0)/(Cd−C0)))×100% value (in percent) was an indication of antitumor effectiveness, Td and Cd were the mean tumor volumes of the treated and vehicle control animals on a given day and T0 and C0 were the mean tumor volumes of the treated and vehicle control animals at the start of the experiment. • 8.5 Tumor mass weight was measured at the end of study. 9. Statistical Analysis
A one-way analysis of variance was performed followed by multiple comparison procedures. All data was analyzed using SPSS 18.0. *p<0.05 or **P<0.01 are generally considered statistically significant when compared with vehicle group.
BXPC-3 tumor cells cultured in RMPI1640 medium supplemented with 10% heat inactivated fetal bovine serum, all cells used EDTA containing trypsin, passaged twice a week, incubated at 37° C. in an atmosphere of 5% CO2 in air and cultured.
BALB/c nude mice, female, 6-8 weeks old, 18-22 g in body weight, were purchased from Shanghai Laboratory Animal Center (SLAC, Shanghai, China).
Each mouse was inoculated subcutaneously at the right flank region with BXPC-3 tumor cells (5×10^7) in 0.1 ml of phosphate-buffered saline with matrigel via a 1 ml syringe for tumor development. The treatments were started when the mean tumor size reaches approximately 200 (150-250) mm^3 at 9 days after inoculation.
Randomized grouping, observations, aseptic, data processing, measurement and statistical analysis are as described in Example 3.

Data set [3] relates to NCI-H2122 lung cancer xenograft. The format is in vivo, BALB/c nude mice. The procedure: (§2) NCI-H2122 cells were cultured in RMPI1640 medium, A431 tumor cells cultured in DMEM medium, all the medium were supplemented with 10% heat inactivated fetal bovine serum, all cells used EDTA containing trypsin, passaged twice a week, incubated at 37° C. in an atmosphere of 5% CO2 in air and cultured.
(§3) 110 BALB/c nude mice, female, 6-8 weeks old, 18-22 g in body weight, were purchased from Shanghai Laboratory Animal Center (SLAC, Shanghai, China). The mice were kept in individually ventilated cage (IVC) systems at constant temperature and humidity, with 20.5-24.5° C. for temperature, 40-75% for humidity. With 4 animals in each cage, the size ogf the cage is 325 mm×210 mm×180 mm. The bedding material is corn cob, which is changed twice per week. Animals had free access to irradiation sterilized dry granule food and water during the entire study period. The food and water were changed twice per week. The identification labels for each cage contain the following information: number of animals, sex, strain, and date received treatment, study number, group number, and the starting date of the treatment. Animals were marked by ear coding. The experiments started one week after receiving the animals.
(§4) Each mouse were inoculated subcutaneously at the right flank region with NCI-H2122 tumor cells (5×10^7/ml), NCI-H1703 tumor cells (1×10^8/ml) and A431 tumor cells (5×10^7/ml), respectively in a mixture of phosphate-buffered saline and matrigel for tumor development via a 1 ml syringe. The treatments were started when the mean tumor size reached about 200 (150-250) mm^3.
(§5) To avoid errors between groups, the animals were first grouped by the tumor volumes according to the tumor volume measurements, and then randomly re-assigned to different groups.
(§6) During the study, the care and use of animals were conducted in accordance with the regulations of the Association for Assessment and Accreditation of Laboratory Animal Care (AAALAC). After tumor cell inoculation, the animals were checked daily for morbidity and mortality. At the time of routine monitoring, the animals were checked for any effects of tumor growth and treatments on normal behavior such as mobility, visual estimation of food and water consumption, body weight gain/loss, eye/hair matting and any other abnormal effect.
(§7) After tumor volume reached 3000 mm^3 or average tumor volume reached 2000 mm^3, before experimental animals emaciated or coma, anesthesia and euthanasia will be performed. During the experiment, if the weight loss of experimental animal reaches 20%, administration will be discontinued and experimental animals will be observed until the weight returned to 10% range before restart of the administration. In this experiment, when the mean tumor volume reached 2000 mm^3 or at the end of 59 days after the administration, experimental animals will be anesthesiaed to collect tumor mass which will be weighed and photographed.
as §1
(§8) A one-way analysis of variance was performed followed by multiple comparison procedures. […]

The test system of the next data set is A431 xenograft. Format: in vivo, BALB/c nude mice. The procedure:
as §2, §3, §4, §5, §6, §7, §1, §8

Data set [4] is described as follows: Pharmacokinetic study of jervine in mice. The format is in vivo. As to conditions: CD-1 mice, PO 10 mg/Kg. The procedure:
Orally dosed: A total of 3 male experimental CD-1 mice, approximately 8 weeks of age at receipt was administered jervine via oral gavage at 10 mg/kg. Blood samples (300 μL) were collected via cardiac puncture predose and at 2 minute, 5 minute, 15 minute, 0.5 hour, 1 hour, 2 hour, 4 hour, 8 hour, 24 hours postdose. Plasma was made form the blood samples in order to measure the concentration of jervine.

Molecules are shown by their SMILES. Entries after “also recorded” stand apart in the source; their conditions may differ. Where two headings read alike, the source gives them in different places.

What is called IC50 is the midpoint of a concentration-inhibition curve. For `CC1=C2C(=O)[C@H]3[C@@H](CC=C4C[C@@H](O)CC[C@@]43C)[C@@H]2CC[C@]12O[C@@H]1C[C@H](C)CN[C@H]1[C@H]2C` [jervine], in data set [1], the IC50 stood at 50 nM. The mortality result in the data set “MTD study of jervine” (50 mg/kg oral) is given as “no animal dead”; in the data set “MTD study of jervine” (80 mg/kg oral), “no animal die”; in “MTD study of jervine” (80 mg/kg oral, listed as Jervine) it was “no animal dead”; in “MTD study of jervine” (150 mg/kg oral) it was “Two mice in the 150 mg/kg treatment group were dead”. Also, the “general condition of the mice” value in “MTD study of jervine” (80 mg/kg oral gavage) is recorded as “all mice were in good condition”. For the same molecule, the weight loss result in the data set “MTD study of jervine” (80 mg/kg oral gavage) is “no significant weight loss”. The T/C value in data set [2] (BXPC-3, 20 mg/kg iv QD × 21 days) is given as 25.8%; in data set [2] (BXPC-3, 40 mg/kg iv QD × 21 days) it was 59.1%; in data set [2] (BXPC-3, 80 mg/kg iv QD × 21 days) it was 54.2%; in data set [3] (NCI-H2122, 40 mg/kg p.o. QD × 21 days), 0.79; in data set [3] (NCI-H2122, 60 mg/kg p.o. QD × 21 days), 0.701; in data set [3] (NCI-H2122, 80 mg/kg p.o. QD × 21 days), 0.594. Besides, the T/C value was 0.52 with A431 xenograft (A431, 40 mg/kg p.o. QD × 21 days); 0.80 in the data set on A431 xenograft (A431, 60 mg/kg p.o. QD × 21 days); 0.82 with A431 xenograft (A431, 80 mg/kg p.o. QD × 21 days). Also, the “tumor growth inhibition (in words)” value in data set [2] (BXPC-3 xenograft) is listed as “significantly inhibit the growth of these three tumors; also recorded: effectively inhibit the tumor growth”. Further, in data set [2] (BXPC-3 xenograft, during administration), the “side effects / weight loss of the mice” value is “no obvious side effects such as weight lose was observed; also recorded: no significant of weight lose”. In addition, in data set [4], the “F (bioavailability)” value is 41.2%.
